Measured values published in PubChem BioAssay (NCI).
Values joined by “and” are separate entries in the source; they are usually repeats but may differ in a detail not shown here. Equal entries are not always repeated.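 Following 48 hours of exposure in 96-well plates, responses at five concentrations were used to interpolate endpoints linearly. GI50 = concentration required for 50% inhibition of growth. TGI denotes the concentration required for complete inhibition of growth.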

Legend:
Test in all cases: growth of human tumour cells (NCI), 48 h
[1] = system: NCI-H460 lung
[2] = system: UACC-62 melanoma
[3] = system: SF-268 CNS
[4] = system: MCF7 breast
[5] = system: SF-539 CNS
[6] = system: TK-10 renal
[7] = system: SNB-19 CNS
[8] = system: HS 578T breast
[9] = system: DU-145 prostate
[10] = system: NCI-H226 lung

## COc1ccc(-c2nc3sccn3c2-c2ccnc(NCCCNS(=O)(=O)c3ccc(F)cc3)n2)cc1
[1]
  GI50: 2.78 µM
  TGI: 37.6 µM
[2]
  GI50: 0.752 µM
  TGI: 2.73 µM
[3]
  GI50: 3.05 µM
  TGI: 48.3 µM
[4]
  GI50: 2.48 µM
  TGI: 8.66 µM
[5]
  GI50: 2.91 µM
  TGI: 8.67 µM
[6]
  GI50: 3.92 µM
  TGI: > 100 µM
[7]
  GI50: 4.43 µM
  TGI: > 100 µM
[8]
  GI50: 3.22 µM
  TGI: 9.03 µM
[9]
  GI50: 3.02 µM
  TGI: > 100 µM
[10]
  GI50: 1.59 µM
  TGI: 5.28 µM

## CS(=O)(=O)N1CCc2c(-c3cnc(N)nc3)nc(N3CCOCC3)nc21
[1]
  GI50: 0.333 µM and 0.286 µM
  TGI: > 100 µM
[2]
  GI50: 0.28 µM and 0.393 µM
  TGI: 2.24 µM and 2.9 µM
[3]
  GI50: 0.821 µM and 1.05 µM
  TGI: > 51.6 µM
[4]
  GI50: 0.0961 µM and 0.05 µM
  TGI: > 76.1 µM
[5]
  GI50: 0.835 µM and 0.878 µM
  TGI: 4.13 µM and 3.89 µM
[6]
  GI50: 0.197 µM and 0.221 µM
  TGI: 3.25 µM and 4.09 µM
[7]
  GI50: 2.21 µM and 1.64 µM
  TGI: > 59.5 µM
[8]
  GI50: 0.324 µM and 0.222 µM
  TGI: 3.3 µM and 1.86 µM
[9]
  GI50: 0.632 µM and 0.503 µM
  TGI: > 45.9 µM
[10]
  GI50: 0.52 µM and 0.343 µM
  TGI: 9.45 µM and 12.5 µM

## CCCc1n(Cc2ccc3ccccc3n2)cc[n+]1Cc1ccc2ccccc2n1
[1]
  GI50: 2.44 µM
  TGI: 11.5 µM
[2]
  GI50: 1.12 µM
  TGI: 6.19 µM
[3]
  GI50: 2.3 µM
  TGI: 14.2 µM
[4]
  GI50: 1.25 µM
  TGI: 11.9 µM
[5]
  GI50: 2.14 µM
  TGI: 13.4 µM
[6]
  GI50: 2.84 µM
  TGI: 12.7 µM
[7]
  GI50: 1.13 µM
  TGI: 13.2 µM
[8]
  GI50: 3.54 µM
  TGI: 23 µM
[9]
  GI50: 4.22 µM
  TGI: 31.2 µM
[10]
  GI50: 3.26 µM
  TGI: 26.2 µM

## CC[C@@]1(O)C(=O)NCc2c1cc1n(c2=O)Cc2cc3c(NC(C)=O)cccc3nc2-1
[1]
  GI50: > 100 µM
  TGI: > 100 µM
[2]
  GI50: > 100 µM
  TGI: > 100 µM
[3]
  GI50: > 100 µM
  TGI: > 100 µM
[4]
  GI50: > 100 µM
  TGI: > 100 µM
[5]
  GI50: > 100 µM
  TGI: > 100 µM
[6]
  GI50: > 100 µM
  TGI: > 100 µM
[7]
  GI50: > 100 µM
  TGI: > 100 µM
[8]
  GI50: > 100 µM
  TGI: > 100 µM
[9]
  GI50: > 100 µM
  TGI: > 100 µM
[10]
  GI50: > 100 µM
  TGI: > 100 µM

## CNc1ncc2cc(-c3cc(NC(=O)NCCC(C)(C)C)c(F)cc3C)c(C)nc2n1
[1]
  GI50: 0.473 µM and 0.332 µM
  TGI: > 100 µM
[2]
  GI50: < 0.01 µM and 0.00585 µM
  TGI: 0.0881 µM and 0.121 µM
[3]
  GI50: 0.716 µM and 0.721 µM
  TGI: > 100 µM
[4]
  GI50: 4.98 µM and 8.58 µM
  TGI: > 100 µM
[5]
  GI50: 0.526 µM and 1.05 µM
  TGI: 9.49 µM and > 10 µM
[6]
  GI50: 0.241 µM and 0.243 µM
  TGI: 5.07 µM and 6.79 µM
[7]
  GI50: 2.23 µM and 1.55 µM
  TGI: > 100 µM
[8]
  GI50: 0.839 µM and 0.582 µM
  TGI: 33.5 µM and > 10 µM
[9]
  GI50: 0.535 µM and 0.685 µM
  TGI: > 100 µM
[10]
  GI50: 1.11 µM and 0.298 µM
  TGI: > 100 µM

## COc1cc(NC(C)CCCN2C(=O)c3ccccc3C2=O)c2ncccc2c1OC (stereo not given)
[1]
  GI50: 35.5 µM
  TGI: > 100 µM
[2]
  GI50: 35.9 µM
  TGI: > 100 µM
[3]
  GI50: 55.7 µM
  TGI: > 100 µM
[4]
  GI50: 10.9 µM
  TGI: > 100 µM
[5]
  GI50: 78 µM
  TGI: > 100 µM
[6]
  GI50: 40.5 µM
  TGI: > 100 µM
[7]
  GI50: 67.7 µM
  TGI: > 100 µM
[8]
  GI50: 24.5 µM
  TGI: 97.3 µM
[9]
  GI50: 41.9 µM
  TGI: > 100 µM
[10]
  GI50: 33.3 µM
  TGI: > 100 µM

## COc1cc(-c2nn(-c3cccc(NC(=O)CCN4CCN(C)CC4)c3)cc2-c2ccncc2)ccc1Cl
[1]
  GI50: 0.532 µM
  TGI: 2.28 µM
[2]
  GI50: 1.04 µM
  TGI: 2.66 µM
[3]
  GI50: 1.43 µM
  TGI: 3.53 µM
[4]
  GI50: 0.35 µM
  TGI: 1.92 µM
[5]
  GI50: 1.55 µM
  TGI: 3.06 µM
[6]
  GI50: 3.8 µM
  TGI: 14.6 µM
[7]
  GI50: 2.01 µM
  TGI: 8.89 µM
[8]
  GI50: 1.41 µM
  TGI: 6.39 µM
[9]
  GI50: 0.997 µM
  TGI: 6.24 µM
[10]
  GI50: 3.67 µM
  TGI: 22.3 µM

## CC(C)[C@H](C(=O)O[C@@H]1/C=C/C(=O)O[C@@H](C)CCC/C=C/[C@@H]2C[C@H](O)C[C@H]21)N(C)C
[1]
  GI50: 27.7 µM
  TGI: 82.5 µM
[2]
  GI50: 16.8 µM
  TGI: > 89.2 µM
[3]
  GI50: 5.25 µM
  TGI: 41.9 µM
[4]
  GI50: 6.65 µM
  TGI: 28.1 µM
[5]
  GI50: 10.2 µM
  TGI: 58.9 µM
[6]
  GI50: 14.7 µM
  TGI: 60.8 µM
[7]
  GI50: 30.2 µM
  TGI: > 100 µM
[8]
  GI50: 2.2 µM
  TGI: 45.9 µM
[9]
  GI50: 31.5 µM
  TGI: > 100 µM
[10]
  GI50: 11.2 µM
  TGI: 44.2 µM

## CC(C)COC(c1ccc2c(c1)OCO2)C(C)Br (stereo not given)
[1]
  TGI: 51.5 µM
[2]
  TGI: > 100 µM
[3]
  TGI: 59.7 µM
[4]
  TGI: 86.9 µM
[5]
  TGI: 71.3 µM
[6]
  TGI: > 100 µM
[7]
  TGI: > 100 µM
[8]
  TGI: 64.6 µM
[9]
  TGI: > 100 µM
[10]
  TGI: 70.7 µM

## c1cc2c(c(NC3=NCCN3)c1)CCCC2
[1]
  TGI: > 100 µM
[2]
  TGI: > 100 µM
[3]
  TGI: > 100 µM
[4]
  TGI: > 100 µM
[5]
  TGI: > 100 µM
[6]
  TGI: > 100 µM
[7]
  TGI: > 100 µM
[8]
  TGI: > 100 µM
[9]
  TGI: > 100 µM
[10]
  TGI: > 100 µM

## CC(=O)C(C=O)C(C)=O.CC(=O)CC(C)=O.CC(=O)CC(C)=O.[Ru]
[1]
  GI50: 28.5 µM
  TGI: > 100 µM
[2]
  GI50: 0.589 µM
  TGI: 19.1 µM
[3]
  GI50: 34.8 µM
  TGI: > 100 µM
[4]
  GI50: 35.4 µM
  TGI: > 100 µM
[5]
  GI50: 3.8 µM
  TGI: 26.3 µM
[6]
  GI50: 38.9 µM
  TGI: > 100 µM
[7]
  GI50: 52.1 µM
  TGI: > 100 µM
[8]
  GI50: 0.0635 µM
  TGI: 4.2 µM
[9]
  GI50: 37.8 µM
  TGI: > 100 µM
[10]
  GI50: 5.83 µM
  TGI: 35.2 µM

## COC(=O)[C@]12CC[C@@H](C)[C@H](C)[C@@H]1C1=CC[C@@H]3[C@@]4(C)CC(=O)[C@H](O)[C@@](C)(CO)[C@@H]4C(=O)C[C@@]3(C)[C@]1(C)CC2
[1]
  GI50: 6.66 µM
  TGI: 22.6 µM
[2]
  GI50: 3.25 µM
  TGI: 20.8 µM
[3]
  GI50: 12.6 µM
  TGI: 26.5 µM
[4]
  GI50: 12.1 µM
  TGI: 27.5 µM
[5]
  GI50: 16.2 µM
  TGI: 31.6 µM
[6]
  GI50: 19.7 µM
  TGI: 34 µM
[7]
  GI50: 12.9 µM
  TGI: 27.8 µM
[8]
  GI50: 7.98 µM
  TGI: 30.4 µM
[9]
  GI50: 11.2 µM
  TGI: 23.6 µM
[10]
  GI50: 11.9 µM
  TGI: 35.3 µM

## O=C(c1ccco1)c1c(C(F)(F)F)n([O-])c2ccc(F)cc2[n+]1=O
[1]
  GI50: 0.926 µM
  TGI: 11.7 µM
[2]
  GI50: 1.21 µM
  TGI: 2.55 µM
[3]
  GI50: 1.24 µM
  TGI: 2.85 µM
[4]
  GI50: 0.258 µM
  TGI: 1.89 µM
[5]
  GI50: 2.55 µM
  TGI: 8.32 µM
[6]
  GI50: 1.42 µM
  TGI: 3.36 µM
[7]
  GI50: 1.06 µM
  TGI: 2.41 µM
[8]
  GI50: 1.84 µM
  TGI: 7.08 µM
[9]
  GI50: 2.24 µM
  TGI: 7.04 µM
[10]
  GI50: 5.38 µM
  TGI: 22.1 µM
